# Results taken from patent EP4624471A1, “PKMYT1 INHIBITOR, PREPARATION METHOD THEREFOR, AND PHARMACEUTICAL COMPOSITION AND USE THEREOF” (Shanghai Qilu Pharmaceutical Research and Development …, priority 2022, dated 2024).
# What was measured:
# [1] = Metabolic stability in mouse liver microsomes
# PKMYT1 enzyme = molecular target: T1, PKMYT1 enzyme (Homo sapiens, UniProt Q99640); assay: PKMYT1 enzyme inhibition activity, ADP-GLO method; format: biochemical; conditions: PKMYT1 enzyme 10 nM, ATP 5 µM, 37°C 90 minutes; read-out: ADP-GLO IC50
# T1 construct: purchased Thermo Scientific A33387
# T1 sequence (Q99640 1-499): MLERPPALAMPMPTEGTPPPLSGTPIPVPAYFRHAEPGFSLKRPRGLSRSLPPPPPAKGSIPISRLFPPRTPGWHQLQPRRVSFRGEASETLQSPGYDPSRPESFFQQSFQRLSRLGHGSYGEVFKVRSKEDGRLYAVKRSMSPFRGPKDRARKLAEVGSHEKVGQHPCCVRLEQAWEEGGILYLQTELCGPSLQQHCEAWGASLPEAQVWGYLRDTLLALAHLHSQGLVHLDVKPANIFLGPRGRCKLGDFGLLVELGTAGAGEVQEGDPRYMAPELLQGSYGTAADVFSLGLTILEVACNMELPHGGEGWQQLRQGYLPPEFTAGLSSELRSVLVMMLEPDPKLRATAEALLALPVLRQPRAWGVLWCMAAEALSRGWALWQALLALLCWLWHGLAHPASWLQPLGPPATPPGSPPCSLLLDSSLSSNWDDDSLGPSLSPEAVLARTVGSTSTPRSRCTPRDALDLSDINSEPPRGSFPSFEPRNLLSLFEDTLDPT
# HCC1569 cells = assay: Cytostatic activity, CTG assay (HCC1569); format: cell-based; conditions: Homo sapiens, HCC1569, 120 h, 5 days
# Method: Biological test example 2. Cytostatic activity of compounds of the present disclosure
# CTG assay (HCC1569) was used to verify the biological activity of some of the example compounds of the present disclosure.
# HCC1569 cells were purchased from ATCC (Cat. No.: CRL-2330) and cultured in a 37°C, 5% CO2 cell culture incubator. HCC1569 complete medium: RPMI-1640 liquid medium (Cat. No.: Gibico 11875-093), 20% FBS (Cat. No.: Gibico 10099-141), 1% Pen Strep (Cat. No.: Gibico 15070-063).
# HCC1569 cells in a 75 cm^2 culture flask were digested with 2 mL of trypsin for 2-3 min, and then neutralized with 2 mL of 1640 complete medium. The mixture was centrifuged at 1200 rpm for 5 minutes. Cells were resuspended using 4 mL of 1640 complete medium. 500 µL of cell suspension was taken for cell counting using Vi-CELL-XR cell counter.
# Using a Multidrop instrument, the HCC1569 cells were seeded in a 384-well plate at a density of 1000 cells per well (50 µL 1640 Growth Media) and administrated 24 hours later.
# Using an ultra-micro pipette, the test compound (concentration: 3.33 mM, dissolved in DMSO) was diluted with 10 µM as the highest starting concentration, and then sequentially diluted in 10 gradients at a ratio of 1:3 (10000 nM, 3333 nM, 1111 nM, 370 nM, 123 nM, 41 nM, 13.7 nM, 4.6 nM, 1.5 nM, 0.5 nM) for administration treatment, with two duplicate wells for each concentration; 14 wells for positive and negative controls were set, with the positive control being the duplicate wells of 10 µM positive compound and the negative control being the duplicate wells of DMSO.
# After the administration was completed, the cells were placed in a 37°C incubator for further culture for 5 days. After 5 days, 25 µL of CTG buffer was added to each well for CTG assay detection, and analyzed using a microplate reader. CTG readings were analyzed.
# a = CTG value (highest concentration), b = CTG value (blank well), x = CTG value(test well).
# IC50 was calculated using GraphPad PRISM 8.
# Log10 (A compound concentration) was used for statistical calculation. (2) The data were input into GraphPad PRISM 8, and Analysis was selected. (3) Nonlinear regression (curve fit) was selected. (4) Log (inhibitor) vs. response-Variable slope was selected. (5) The calculation formula was selected, and the calculation was carried out according to the following formula: Y = Bottom + (Top-Bottom)/(1+10^((LogIC50-X)*HillSlope)), X: logarithm of dose or concentration, Y: response value, Top and Bottom: peak and bottom values. (6) The data were fitted to obtain IC50 values. (7) The fitting conditions were adjusted according to the specific data. Appropriate Constraint conditions were adjusted for Bottom, Top, and HillSlope. The curve that best fits the actual situation has been reached.
# [2] = TS-FeSSIF & TS-FeSSGF solubility test; conditions: pH 5
# [3] = Metabolic stability in human hepatocytes; conditions: for hepatocyte CLint at 1 µM: In vitro Clint (µL/min/10^6 cells); for half-life at 1 µM: t1/2 (min)
# [4] = Tissue distribution: tumor tissue concentration in OVCAR3 tumor-bearing mice; conditions: BALB/c nude mice, 10 mpk p.o. BIDx28D; for Tumor tissue concentration (ng/g) 2 h after administration: 2 h after last administration; for Tumor tissue concentration (ng/g) 6 h after administration: 6 h after last administration
# physchem = conditions: pH 5, Solubility (µg/mL)
# [5] = 24 h, pH 5
structure (smiles),measurement,setting,value
"Cc1cc(F)c(O)c(C)c1-n1c(N)c(C(N)=O)c2cc(Br)c(C)nc21 (atropisomer, axis not shown) [Example 58.1]",half-life at 1 µM,[1]; liver microsomes,1.16 h
same,microsomal CLint at 1 µM,[1]; liver microsomes,19.9 µL/min/mg
same,IC50,PKMYT1 enzyme,0.00308 µM
same,IC50,HCC1569 cells,0.083 µM
"Cc1cc(F)c(O)c(C)c1-n1c(N)c(C(N)=O)c2cc(C(F)(F)F)c(C)nc21 (atropisomer, axis not shown) [Example 59.1]",solubility at 24 h,[2]; ts-fessgf,253 µg/mL
same,solubility at 24 h,[2]; ts-fessif,352 µg/mL
same,half-life at 1 µM,[1]; liver microsomes,3.08 h
same,microsomal CLint at 1 µM,[1]; liver microsomes,< 7.5 µL/min/mg
same,hepatocyte CLint at 1 µM,[3]; Female,10 µL/min/1e6 cells
same,hepatocyte CLint at 1 µM,[3]; Male,7 µL/min/1e6 cells
same,half-life at 1 µM,[3]; Female,2.3 h
same,half-life at 1 µM,[3]; Male,3.3 h
same,IC50,PKMYT1 enzyme,0.00449 µM
same,IC50,HCC1569 cells,0.056 µM
same,Tumor tissue concentration (ng/g) 2 h after administration,[4],633 ng/g
same,Tumor tissue concentration (ng/g) 6 h after administration,[4],231 ng/g
"Cc1cc2c(C(N)=O)c(N)n(-c3c(C)ccc(O)c3C)c2nc1C (atropisomer, axis not shown) [RP-6306, reference compound]",half-life at 1 µM,[1]; microsomes,0.377 h
same,microsomal CLint at 1 µM,[1]; microsomes,61.3 µL/min/mg
same,solubility at 24 h,physchem,31.6 µg/mL
same,Tumor tissue concentration (ng/g) 2 h after administration,[4],172 ng/g
same,Tumor tissue concentration (ng/g) 6 h after administration,[4],18 ng/g
same,Solubility,[5],33.9 µg/mL
Cc1nc2c(cc1N1CCOCC1)c(C(N)=O)c(N)n2-c1c(C)c(O)cc(F)c1C [Example 134],IC50,PKMYT1 enzyme,0.0336 µM
same,IC50,HCC1569 cells,0.056 µM
CCc1nc2c(cc1C)c(C(N)=O)c(N)n2-c1c(C)c(O)cc(F)c1C [Example 136],IC50,PKMYT1 enzyme,0.0099 µM
same,IC50,HCC1569 cells,0.021 µM
Cc1c(O)cc(F)c(C)c1-n1c(N)c(C(N)=O)c2cc3c(nc21)CCC3 [Example 179],IC50,PKMYT1 enzyme,0.00313 µM
same,IC50,HCC1569 cells,0.022 µM
Cc1c(O)cc(F)c(C)c1-n1c(N)c(C(N)=O)c2cc3c(nc21)CCO3 [Example 181],IC50,PKMYT1 enzyme,0.0348 µM
same,IC50,HCC1569 cells,0.063 µM
Cc1c(O)cc(F)c(C)c1-n1c(N)c(C(N)=O)c2cc3ccccc3nc21 [Example 191],IC50,PKMYT1 enzyme,0.00285 µM
same,IC50,HCC1569 cells,0.016 µM
